In US20260028334A1, “N-(3-(BENZO[B]THIOPHENE-2-CARBOXAMIDO)-PHENYL)-2,3-DIHYDROBENZO[B][1,4]DIOXINE-6-CARBOXAMIDE DERIVATIVES AND RELATED COMPOUNDS AS LACTATE/ATP PRODUCTION INHIBITORS FOR THE TREATMENT OF CANCER” (WMT Aktiengesellschaft, priority 2022, published 2026):

Tests used:
Type in all cases: cell-based
[1] = system: HeLa, 4T1, LLC1, A549, MDA-MB-231 and MiaPaCa2 cells; experiment: Lactate production inhibition assay (FIG. 2); details: 48 hours treatment, 1.5 to 10000 nM
Description: (§1) Recombinant Lactate Dehydrogenase A (LDHA) was used to convert lactate in tissue culture supernatants to pyruvate, with the concomitant reduction of NAD^+ to NADH. The electron acceptor 1-methoxyphenazine methosulfate (MPMS) was then reduced by the generated NADH, thereby regenerating NAD+. Reduced 1-methoxyphenazine methosulfate is used in turn to reduce Water Soluble Tetrazolium 8 (WST8) to an orange WST8 formazan product. The assay is adapted from the publication “Application of WST-8 based colorimetric NAD(P)H detection for quantitative dehydrogenase assays” described in Chamchoy et al., BMC Biochemistry (2019) 20(1):4.
(§2) Cells were plated at 4,000 per well in 96-well plate in a medium of high glucose DMEM (PAN) supplemented with 10% FBS (PAN), 2 mM glutamine-alanine (PAN), 2 mM pyruvate (Sigma) and 10 mL/L penicillin-streptomycin (PAN) and grown at 37° C. in 0.5% O2, 5% CO2 and 75% humidity. For hypoxia, cells were grown and treated in the Whitley H35 Hypoxystation (Don Whitley Scientific) at 37° C. in 0.5% O2, 5% CO2 and 75% humidity. […] Thereafter, 80 μl of substrate mix is added to 20 μl of diluted cell supernatant in a 96-well flat-bottomed plate and the absorbance at 460 nm determined at one minute intervals over a 30 minute period. […]

lactate production = experiment: Lactate production inhibition assay; details: summary of Table 1
Description: as §1
Cells were plated at 4,000 per well in 96-well plate in a medium of high glucose DMEM (PAN) supplemented with 10% FBS (PAN), 2 mM glutamine-alanine (PAN), 2 mM pyruvate (Sigma) and 10 mL/L penicillin-streptomycin (PAN) and grown at 37° C. in 0.5% O2, 5% CO2 and 75% humidity. For hypoxia, cells were grown and treated in the Whitley H35 Hypoxystation (Don Whitley Scientific) at 37° C. in 0.5% O2, 5% CO2 and 75% humidity. The next day, cells were induced with test compounds (FIG. 2: compounds of examples 3/16, 3/8, 10 at 10000, 3333, 1111, 370, 123, 41, 14, 5 and 1.5 nM; FIG. 7: compounds of examples 3/16, 3/8, 10 at 41, 14, 4.6 nM and Phenformin at 100, 50, 25, 12.5, 6.25 μM; FIGS. 8C and 8D: compounds of example 3/16, 3/8, 10, 3/19, 30 and 30/2 at 10000, 3333, 1111, 370, 123, 41, 14, 5 and 1.5 nM), as well as with vehicle (DMSO) only, for 48 hours. After this time, the medium was removed from the cells to measure extracellular lactate. To detect extracellular lactate, cell supernatants are diluted 1:5 in assay buffer (0.2 M tris, pH 8.2) by adding 10 μl cell supernatant+40 μl buffer in a 96-well plate. Assay substrate mix is prepared by adding NAD+ (3.75 mM), WST-8 (0.9 mM), MPMS (10 mM) and recombinant LDHA, expressed in E. coli as an N-terminal hexahistidine tagged fusion protein, is added to a final concentration of 0.8 μg/ml in assay buffer. Thereafter, 80 μl of substrate mix is added to 20 μl of diluted cell supernatant in a 96-well flat-bottomed plate and the absorbance at 460 nm determined at one minute intervals over a 30 minute period. A standard curve of known lactate concentrations of 10, 8, 6, 4, 1, 0.5 and 0.25 mM was constructed for each assay plate.

[2] = system: HeLa cell line expressing GFP-LC3; experiment: Determination of autophagic flux; details: HeLa GFP-LC3 reporter cells, 24 hours of treatment, flow cytometry, FIG. 6
Description: A HeLa cell line stably expressing an artificial protein construct consisting of Green Fluorescent Protein (GFP) as an N-terminal fusion to the human full-length LC3 protein, placed in front of a Red Fluorescent Protein (RFP) as an N terminal fusion to human LC3 lacking its C-terminal Glycine residue (LC3DG), was used to determine autophagic flux (Kaizuka et al., Mol. Cell (2016) 17 835-849) This construct is cleaved in cells by ATG4 at the C-terminus of the full-length LC3 protein, whereupon the GFP-LC3 fragment becomes conjugated to phosphatidyl ethanolamine. The RFP-LC3DG cannot be lipidated, and can be used as an internal reference to produce ratiometric values reporting autophagic flux. The lipidated GFP-LC3 protein becomes incorporated into the membrane of autophagosomes, and upon fusion with lysosomes, is degraded. Consequently, cells with a high autophagic flux have less GFP-LC3, whereas a low autophagic flux results in a relatively higher intracellular amount of GFP-LC3.
Reporter cells were grown as sub-confluent cultures and test compounds were applied at various concentrations. Thapsigargin, a known inducer of autophagy, was used as a positive control. After 24 hours of treatment, a single-cell suspension was prepared by trypsinization, and the GFP fluorescence determined by flow cytometry. A minimum of 10,000 single cells were evaluated for each condition.

[3] = system: ER stress markers CHAC, CHOP/DDIT3, XBP1 and SLC7A11; experiment: Gene expression analysis by qPCR (FIG. 3); details: HeLa, 4T1, LLC1, A549, MDA-MB-231 and MiaPaCa2 cells, 10 nM, 0.5, 1, 2 and 4 hours
Protocol: (§3) Cells were plated at 40,000 cells per ml in medium of high glucose DMEM (PAN) supplemented with 10% FBS (PAN), 2 mM glutamine-alanine (PAN), 2 mM pyruvate (Sigma) and 10 mL/L penicillin-streptomycin (PAN), and grown at 37° C. in 0.5% O2, 5% CO2 and 75% humidity. Next day, cells were induced with test compounds (FIG. 3: compounds of example 3/16, 3/8, 10 at 10 nM; FIG. 8E-8AB: compounds of example 3/16, 3/8, 10, 3/19, 30 and 30/2 at 10 nM) 0.5, 1, 2 and 4 hours, as well as with vehicle (DMSO) only. After this time, the cells were lysed according to protocol (Promega, SV 96 Total RNA Isolation System, #Z3505). After transferring the lysate to a 96-well-RNA binding plate, RNA was isolated and put at approx. 1 μg into cDNA synthesis using LunaScript RT SuperMix Kit (NEB, #E3010). The resulting cDNA was diluted 1:5 and used for qPCR Analysis (Taqman). Luna Universal Probe qPCR Master Mix (NEB, #M3004) is used as 2× reaction mix to which the diluted cDNA is added. The qPCR analysis was performed using QuantStudio™ 6 Flex real-time PCR systems (Thermo Fisher Scientific).
(§4) A set of primers plus probe for each gene of interest was purchased at IDT (Integrated DNA Technologies).

HeLa cells = experiment: Lactate production inhibition assay, co-treatment with phenformin (FIG. 7); details: 48 hours co-treatment of phenformin (6.25-100 μM) with compound at 41, 14, 4.6 nM
Description: as §1, §2

[4] = system: ER stress markers CHAC and CHOP/DDIT3; experiment: Gene expression analysis by qPCR (FIG. 8E-8AB); details: Panc02 and SKOV3 cells, 10 nM, 0.5, 1, 2 and 4 hours
Protocol: as §3, §4

With O=C(Nc1ccc(F)c(NC(=O)c2cc3ccc(OCCCN4CCCC4)cc3s2)c1)c1ccc2c(c1)OCCO2 [3/8] the lactate production level [1] was “dose-dependent reduction”, the “activity in inhibiting production of ATP and/or lactate” value (lactate production) was “high activity” and the autophagic flux [2] was “significantly enhance”. The “ER stress markers CHAC, CHOP/DDIT3, XBP1 and SLC7A11” value [3] was “time-dependent upregulation”, the lactate levels (HeLa cells) was “downregulation” and the “ER stress markers CHAC and CHOP/DDIT3” value [4] was “time-dependent upregulation”.
With Cc1ccc(NC(=O)c2ccc3c(c2)OCCO3)cc1NC(=O)c1cc2cccnc2s1 [3/16] the lactate production level [1] was “dose-dependent reduction”, the “activity in inhibiting production of ATP and/or lactate” value (lactate production) was “high activity” and the autophagic flux [2] was “significantly enhance”. The “ER stress markers CHAC, CHOP/DDIT3, XBP1 and SLC7A11” value [3] was “time-dependent upregulation”, the lactate levels (HeLa cells) was “downregulation” and the “ER stress markers CHAC and CHOP/DDIT3” value [4] was “time-dependent upregulation”.
